According to patent US7960391B2, “Heterocyclylethylbenzamide derivatives” (Bayer Cropscience AG, priority 2005, dated 2011):

How the values were obtained:
[1] = system: Botrytis cinerea; assay: Effectiveness on Botrytis cinerea; format: in vivo; details: 330 ppm; comparison compounds of WO 01/11965
[2] = system: Alternaria brassicae; assay: In vivo test on Alternaria brassicae (leaf spot of crucifers); details: for effectiveness on Alternaria brassicae: 330 ppm, comparison compounds of WO 01/11965
Method: In Vivo Test on Alternaria brassicae (Leaf Spot of Crucifers)
The active ingredient tested is prepared by potter homogenisation in a concentrated suspension type formulation at 100 g/l. This suspension is then diluted with water to obtain the desired active material concentration.
Radish plants (Pernot variety) in starter cups, sown on a 50/50 peat soil-pozzolana substrate and grown at 18-20° C., are treated at the cotyledon stage by spraying with the aqueous suspension described above.
Plants, used as controls, are treated with an aqueous solution not containing the active material.
After 24 hours, the plants are contaminated by spraying them with an aqueous suspension of Alternaria brassicae spores (40,000 spores per cm^3). The spores are collected from a 12-13-day-old culture.
The contaminated radish plants are incubated for 6-7 days at about 18° C., under a humid atmosphere.
Grading is carried out 6 to 7 days after the contamination, in comparison with the control plants.

[3] = system: Peronospora parasitica; assay: Efficacy against Peronospora parasitica; format: in vivo; details: 330 ppm; comparison compound of WO 01/11965

| Structure (SMILES) | effectiveness on Botrytis cinerea [1] | effectiveness on Alternaria brassicae [2] | efficacy against Peronospora parasitica [3] | good (at least 50%) [protection] versus control plants ([2]; radish plants (Pernot variety), preventive spray 24 hours before contamination, dose 500 ppm, grading 6 to 7 days after contamination) |
| --- | --- | --- | --- | --- |
| CCNC(=O)C(Cc1ncc(C(F)(F)F)cc1Cl)NC(=O)c1ccccc1 (stereo not shown) [compound 304, N-{1-ethylcarbamoyl-2-[3-chloro-5-(trifluoromethyl)-2-pyridinyl]-ethyl}-benzamide] | zero effectiveness | – | – | – |
| CCNC(=O)C(Cc1ncc(C(F)(F)F)cc1Cl)NC(=O)c1ccccc1Br (stereo not shown) [compound 310, N-{1-ethylcarbamoyl-2-[3-chloro-5-(trifluoromethyl)-2-pyridinyl]ethyl}-2-bromobenzamide] | zero effectiveness | – | – | – |
| CNC(=O)C(Cc1ncc(C(F)(F)F)cc1Cl)NC(=O)c1ccc(OC)cc1 (stereo not shown) [compound 315, N-{1-methylcarbamoyl-2-[3-chloro-5-(trifluoromethyl)-2-pyridinyl]ethyl}-4-methoxybenzamide] | zero effectiveness | – | – | – |
| CCNC(=O)C(Cc1ncc(C(F)(F)F)cc1Cl)NC(=O)c1cccc([N+](=O)[O-])c1 (stereo not shown) [compound 307, N-{1-ethylcarbamoyl-2-[3-chloro-5-(trifluoromethyl)-2-pyridinyl]ethyl}-3-nitrobenzamide] | zero effectiveness | poor effectiveness | – | – |
| O=C(Cc1cccs1)NCc1ncc(C(F)(F)F)cc1Cl [compound 101, N-{[3-chloro-5-(trifluoromethyl)-2-pyridinyl]methyl}-5-thienylacetamide] | no efficacy | poor efficacy | no efficacy | – |
| CNC(=O)C(Cc1ncc(C(F)(F)F)cc1Cl)NC(=O)c1ccccc1 (stereo not shown) [compound 314, N-{1-methylcarbamoyl-2-[3-chloro-5-(trifluoromethyl)-2-pyridinyl]ethyl}-benzamide] | zero effectiveness | – | – | – |
| CCNC(=O)C(Cc1ncc(C(F)(F)F)cc1Cl)NC(=O)c1ccc(Cl)cc1 (stereo not shown) [compound 306, N-{1-ethylcarbamoyl-2-[3-chloro-5-(trifluoromethyl)-2-pyridinyl]ethyl}-4-chlorobenzamide] | zero effectiveness | – | – | – |
| CNC(=O)C(Cc1ncc(C(F)(F)F)cc1Cl)NC(=O)c1ccc(-c2ccccc2)cc1 (stereo not shown) [compound 316, N-{1-methylcarbamoyl-2-[3-chloro-5-(trifluoromethyl)-2-pyridinyl]-ethyl}-4-phenylbenzamide] | zero effectiveness | poor effectiveness | – | – |
| O=C(NCCc1ncc(Br)cn1)c1ccccc1C(F)(F)F [Compound A-1, N-[2-(5-bromopyrimidin-2-yl)ethyl]-2-(trifluoromethyl)benzamide] | – | – | – | at least 50% |
